Consider 27 compounds from US9382188B2, “Aromatic ring compound” (TAKEDA PHARMACEUTICAL COMPANY LIMITED, priority 2012, dated 2016).

The structures appear in SMILES notation.

T1 sequence (O14842 whole entry): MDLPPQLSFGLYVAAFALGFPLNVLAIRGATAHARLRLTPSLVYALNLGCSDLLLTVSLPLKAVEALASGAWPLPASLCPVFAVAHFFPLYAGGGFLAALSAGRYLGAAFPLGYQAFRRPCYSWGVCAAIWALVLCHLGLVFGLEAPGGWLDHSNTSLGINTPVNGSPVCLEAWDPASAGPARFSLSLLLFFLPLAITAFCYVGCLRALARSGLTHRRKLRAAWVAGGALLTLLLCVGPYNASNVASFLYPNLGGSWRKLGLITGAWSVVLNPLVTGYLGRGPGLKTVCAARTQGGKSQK

The test has as its target T1, human GPR40 (Homo sapiens, UniProt O14842).
T1 construct: expressed in transfected cells
Briefly: Evaluation of human GPR40 agonist activity with increase in intracellular Ca2+ concentration as an index (FLIPR Tetra). To be noted: test compound 1 μM; CHO(dhfr-) cells stably expressing human GPR40; 100% = activity of 1 μM WO2009/048527 Example 99.2, 0% = DMSO. In kind it is cell-based. How it is done: Evaluation of human GPR40 agonist activity with increase in intracellular Ca^2+ concentration as an index
CHO(dhfr-) cells that stably expressed human GPR40 were suspended in MEMα (Nikken Bio Medical Laboratory) containing 10% dialysis serum (GEMINI BIO-PRODUCTS), 10 mM HEPES (Invitrogen), 100 U/mL penicillin, 100 μg/mL streptomycin (Invitrogen), and plated on a 384 well black/clear cell culture plate at 10,000 cells/well. After culture overnight in a CO2 incubator at 37° C., the culture supernatant was removed, and a loading buffer [dye attached to Calcium 5 Assay Kit (Molecular Devices) was dissolved in an assay buffer (20 mM HEPES, 0.2% fatty acid-free BSA (Sigma-Aldrich), 2.5 mM probenecid (DOJINDO)-containing HBSS (Invitrogen)) added with 0.025% Cremophor EL (DOJINDO)] was added at 37.5 μL/well. After incubation in a CO2 incubator at 37° C. for 1 hr, the cells were stood at room temperature for 15 min, an assay buffer containing the test compound at a final concentration of 1 μM was added at 12.5 μL/well in FLIPR Tetra (Molecular Devices), and the fluorescence amount was successively measured. Human GPR40 agonist activity calculated using an increase in the intracellular Ca^2+ concentration as an index, wherein the activity of 1 μM of the compound described in WO 2009/048527 (WO2009/048527 Example 99.2) was 100%, and the activity when DMSO was added instead of the test compound was 0%.
For the compound `COc1ccc(F)c(-c2ccc(OCc3cccc(C(CC(=O)O)C4CCCC4)c3)cc2CC(C)(C)C)c1` (stereo not drawn) [Example 39, 3-cyclopentyl-3-(3-(((2-(2,2-dimethylpropyl)-2′-fluoro-5′-methoxybiphenyl-4-yl)oxy)methyl)phenyl)propanoic acid], the activation at 1 µM was found to be 105%.

As for `COc1ccc(F)c(-c2ccc(OCc3cccc(C(CC(=O)O)C4CC4)c3)cc2CCCC(C)(C)C)c1` (stereo not drawn) [Example 113, 3-cyclopropyl-3-(3-(((2-(4,4-dimethylpentyl)-2′-fluoro-5′-methoxy-[1,1′-biphenyl]-4-yl)oxy)methyl)phenyl)propanoic acid], the activation at 1 µM was determined as 102%. `COc1ccc(F)c(-c2ccc(OCc3cccc(C(CC(=O)O)C4CC4C#N)c3)cc2CC(C)(C)C)c1` (stereo not drawn) [Example 88, 3-(2-cyanocyclopropyl)-3-(3-(((2′-fluoro-5′-methoxy-2-neopentyl-[1,1′-biphenyl]-4-yl)oxy)methyl)phenyl)propanoic acid]: the “Human GPR40 agonist activity (increase in intracellular Ca2+ concentration)” value was determined as 112%.

With `COc1ccc(F)c(-c2ccc(OCc3cccc(OCC(=O)O)c3)nc2CC(C)(C)C)c1` [Example 1, (3-(((6-(2,2-dimethylpropyl)-5-(2-fluoro-5-methoxyphenyl)pyridin-2-yl)oxy)methyl)phenoxy)acetic acid], the activation at 1 µM was 98%. On the same count and under the same terms, as for `CC(C)(C)Cc1cc(OCc2cccc(C(CC(=O)O)C3CC3)c2)cnc1-c1cc(C#N)ccc1F` (stereo not drawn) [Example 60, 3-(3-(((6-(5-cyano-2-fluorophenyl)-5-(2,2-dimethylpropyl)pyridin-3-yl)oxy)methyl)phenyl)-3-cyclopropylpropanoic acid], the figure is 56%; as for `COc1ccc(F)c(-c2ccc(OCc3cccc(OCC(=O)O)c3)cc2CC(C)(C)C)c1` [Example 2, (3-(((2-(2,2-dimethylpropyl)-2′-fluoro-5′-methoxybiphenyl-4-yl)oxy)methyl)phenoxy)acetic acid], 108%; as for `COc1ccccc1-c1ncc(OCc2cccc(C(CC(=O)O)C3CC3)c2)cc1CC(C)(C)C` (stereo not drawn) [Example 50, 3-cyclopropyl-3-(3-(((5-(2,2-dimethylpropyl)-6-(2-methoxyphenyl)pyridin-3-yl)oxy)methyl)phenyl)propanoic acid], 9%. In the case of `CCCC(C)(C)Cc1cc(OCc2cccc(C(CC(=O)O)C3CC3)c2)ccc1-c1cc(OC)ccc1F` (stereo not drawn) [Example 105, 3-cyclopropyl-3-(3-(((2-(2,2-dimethylpentyl)-2′-fluoro-5′-methoxybiphenyl-4-yl)oxy)methyl)phenyl)propanoic acid], the activation at 1 µM turned out to be 116%. Turning to `COc1ccc(F)c(-c2ccc(OCc3cccc(C(CC(=O)O)C4CC4)c3)cc2C(C)C(C)(C)C)c1` (stereo not drawn) [Example 98, 3-cyclopropyl-3-(3-(((2-(3,3-dimethylbutan-2-yl)-2′-fluoro-5′-methoxybiphenyl-4-yl)oxy)methyl)phenyl)propanoic acid], the activation at 1 µM was 96%. Still for that read-out and setting: with `COc1ccc(F)c(-c2ccc(OCc3cccc(C(CC(=O)O)C(C)C)c3)cc2CC(C)(C)C)c1` (stereo not drawn) [Example 78, 3-(3-(((2′-fluoro-5′-methoxy-2-neopentyl-[1,1′-biphenyl]-4-yl)oxy)methyl)phenyl)-4-methylpentanoic acid] the figure was 118%. For the compound `COc1ccc(F)c(-c2ccc(OCc3cccc(C(CC(=O)O)C4CC4)c3)cc2-c2ccc(C#N)s2)c1` (stereo not drawn) [Example 28, 3-(3-(((2-(5-cyano-2-thienyl)-2′-fluoro-5′-methoxybiphenyl-4-yl)oxy)methyl)phenyl)-3-cyclopropylpropanoic acid], the activation at 1 µM was 95%. Regarding `COc1ccc(F)c(-c2ccc(OCc3cccc(C(CC(=O)O)C4CC4)c3)cc2-c2nnc(C(F)(F)F)s2)c1` (stereo not drawn) [Example 75, 3-cyclopropyl-3-(3-(((2′-fluoro-5′-methoxy-2-(5-(trifluoromethyl)-1,3,4-thiadiazol-2-yl)-[1,1′-biphenyl]-4-yl)oxy)methyl)phenyl)propanoic acid], the activation at 1 µM came out at 91%. Same read-out and setting: as for `CCOc1ccc(F)c(-c2ncc(OCc3cccc(C(CC(=O)O)C4CC4)c3)cc2CC(C)(C)C)c1` (stereo not drawn) [Example 68, 3-cyclopropyl-3-(3-(((5-(2,2-dimethylpropyl)-6-(5-ethoxy-2-fluorophenyl)pyridin-3-yl)oxy)methyl)phenyl)propanoic acid], the figure is 116%.

As to `CCC1(Cc2cc(OCc3cccc(C(CC(=O)O)C4CC4)c3)ccc2-c2cc(OC)ccc2F)CCCC1` (stereo not drawn) [Example 100, 3-cyclopropyl-3-(3-(((2-((1-ethylcyclopentyl)methyl)-2′-fluoro-5′-methoxybiphenyl-4-yl)oxy)methyl)phenyl)propanoic acid], the activation at 1 µM was found to be 105%. Same read-out and setting: with `COc1ccc(F)c(-c2ccc(OCc3cccc(C(CC(=O)O)C4CC4)c3)cc2CC2(C#N)CCC2)c1` (stereo not drawn) [Example 102, 3-(3-(((2-((1-cyanocyclobutyl)methyl)-2′-fluoro-5′-methoxybiphenyl-4-yl)oxy)methyl)phenyl)-3-cyclopropylpropanoic acid] the figure was 100%; with `COc1ccc(F)c(-c2ccc(OCc3cccc(C(CC(=O)O)C4CC4)c3)cc2-c2ccc(C(F)(F)F)cc2)c1` (stereo not drawn) [Example 17, 3-cyclopropyl-3-(3-(((2-fluoro-5-methoxy-4″-(trifluoromethyl)-1,1′:2′,1″-terphenyl-4′-yl)oxy)methyl)phenyl)propanoic acid], 98%. Still for that read-out and setting: with `CCC(C)(C)C(OCCOC)c1cc(OCc2cccc(C(CC(=O)O)C3CC3)c2)ccc1-c1cc(OC)ccc1F` (stereo not drawn) [Example 110, 3-cyclopropyl-3-(3-(((2′-fluoro-5′-methoxy-2-(1-(2-methoxyethoxy)-2,2-dimethylbutyl)biphenyl-4-yl)oxy)methyl)phenyl)propanoic acid] the figure was 94%; with `COc1ccc(F)c(-c2ccc(OCc3cccc(C(CC(=O)O)C4CCC4)c3)cc2CC(C)(C)C)c1` (stereo not drawn) [Example 42, 3-cyclobutyl-3-(3-(((2-(2,2-dimethylpropyl)-2′-fluoro-5′-methoxybiphenyl-4-yl)oxy)methyl)phenyl)propanoic acid], 104%. Still for that read-out and setting: as for `CC(C)(C)Cc1cc(OCc2cccc(C(CC(=O)O)C3CC3)c2)cnc1-c1cccc(O)c1` (stereo not drawn) [Example 55, 3-cyclopropyl-3-(3-(((5-(2,2-dimethylpropyl)-6-(3-hydroxyphenyl)pyridin-3-yl)oxy)methyl)phenyl)propanoic acid], the figure is 126%. On to `CCC(C)(C)Cc1cc(OCc2cccc(C(CC(=O)O)C3CC3)c2)ccc1-c1cc(OC)ccc1F` (stereo not drawn) [Example 106, 3-cyclopropyl-3-(3-(((2-(2,2-dimethylbutyl)-2′-fluoro-5′-methoxybiphenyl-4-yl)oxy)methyl)phenyl)propanoic acid], for which the activation at 1 µM amounted to 96%.

As to `COc1ccc(C)c(-c2ncc(OCc3cccc(C(CC(=O)O)C4CC4)c3)cc2CC(C)(C)C)c1` (stereo not drawn) [Example 58, 3-cyclopropyl-3-(3-(((5-(2,2-dimethylpropyl)-6-(5-methoxy-2-methylphenyl)pyridin-3-yl)oxy)methyl)phenyl)propanoic acid], the activation at 1 µM turned out to be 114%. As for `COc1ccc(F)c(-c2ccc(OCc3cccc(C(CC(=O)O)C4CC4C#N)c3)cc2CC(C)(C)C)c1` (stereo not drawn) [Example 91, 3-(2-cyanocyclopropyl)-3-(3-(((2′-fluoro-5′-methoxy-2-neopentyl-[1,1′-biphenyl]-4-yl)oxy)methyl)phenyl)propanoic acid], the “Human GPR40 agonist activity (increase in intracellular Ca2+ concentration)” value worked out at 97%. Take `COc1cccc(-c2ncc(OCc3cccc(C(CC(=O)O)C4CC4)c3)cc2CC(C)(C)C)c1` (stereo not drawn) [Example 46, 3-cyclopropyl-3-(3-(((5-(2,2-dimethylpropyl)-6-(3-methoxyphenyl)pyridin-3-yl)oxy)methyl)phenyl)propanoic acid]: the activation at 1 µM came out at 117%. Regarding `COc1ccc(F)c(-c2ccc(OCc3cc(C(CC(=O)O)C4CC4)ccn3)nc2CC(C)(C)C)c1` (stereo not drawn) [Example 25, 3-cyclopropyl-3-(2-(((6-(2,2-dimethylpropyl)-5-(2-fluoro-5-methoxyphenyl)pyridin-2-yl)oxy)methyl)pyridin-4-yl)propanoic acid], the activation at 1 µM was determined as 108%. Still for that read-out and setting: with `COc1ccc(-c2ncc(OCc3cccc(C(CC(=O)O)C4CC4)c3)cc2CC(C)(C)C)cc1` (stereo not drawn) [Example 48, 3-cyclopropyl-3-(3-(((5-(2,2-dimethylpropyl)-6-(4-methoxyphenyl)pyridin-3-yl)oxy)methyl)phenyl)propanoic acid] the figure was -1%; with `COCCCOc1ccc(F)c(-c2ncc(OCc3cccc(C(CC(=O)O)C4CC4)c3)cc2CC(C)(C)C)c1` (stereo not drawn) [Example 72, 3-cyclopropyl-3-(3-(((5-(2,2-dimethylpropyl)-6-(2-fluoro-5-(3-methoxypropoxy)phenyl)pyridin-3-yl)oxy)methyl)phenyl)propanoic acid], 1%. Same read-out and setting: as for `CCC(CC)(CC)Cc1cc(OCc2cccc(C(CC(=O)O)C3CC3)c2)ccc1-c1cc(OC)ccc1F` (stereo not drawn) [Example 111, 3-cyclopropyl-3-(3-(((2-(2,2-diethylbutyl)-2′-fluoro-5′-methoxybiphenyl-4-yl)oxy)methyl)phenyl)propanoic acid], the figure is 111%.
